In one assay the target is T1, A2 receptor (Rattus norvegicus, UniProt P30543).
T1 construct: from tissue
Put plainly: In vitro binding to adenosine A2 receptor, [3H]-CGS 21680 radioligand. The following applies: radioligand [3H]-CGS 21680; read-out: A2 receptor binding (Ki50). The procedure: (§1) Evaluation of in vitro binding to adenosine A1 and A2 receptors
(§2) The affinity of the novel compounds described in this invention for the adenosine A1 receptor was determined essentially as described in the literature using [^3 H]-R-PIA as a radioligand (Naunyn-Schmiedeberg's Archives of Pharmacology, 1980, 313, 179-187). Affinity for the A2 receptor was measured using the radioligand [^3 H]-CGS 21680 (European Journal of Pharmacology, 1989, 168, 243-246), and the values for representative compounds is given in the table below.

A further assay deals with T2, adenosine A1 receptor (Rattus norvegicus, UniProt P25099).
T2 construct: from tissue
T2 sequence (P25099 1-326): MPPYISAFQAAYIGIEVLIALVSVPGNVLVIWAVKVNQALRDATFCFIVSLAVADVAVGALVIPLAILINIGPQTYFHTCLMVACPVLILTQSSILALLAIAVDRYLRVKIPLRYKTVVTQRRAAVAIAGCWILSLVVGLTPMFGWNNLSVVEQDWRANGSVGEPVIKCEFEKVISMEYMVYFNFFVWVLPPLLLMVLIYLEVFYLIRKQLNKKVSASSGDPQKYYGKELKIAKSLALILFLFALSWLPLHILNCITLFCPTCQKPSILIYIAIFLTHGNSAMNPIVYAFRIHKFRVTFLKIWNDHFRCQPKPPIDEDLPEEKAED
Description: In vitro binding to adenosine A1 receptor, [3H]-R-PIA radioligand. The following applies: for Ratio A2/A1: A2 binding Ki50 divided by A1 binding Ki50 (selectivity); for Ki: radioligand [3H]-R-PIA, read-out: A1 receptor binding (Ki50). The procedure: as §1, §2

Molecules are shown by their SMILES.

T1 sequence (P30543 whole entry): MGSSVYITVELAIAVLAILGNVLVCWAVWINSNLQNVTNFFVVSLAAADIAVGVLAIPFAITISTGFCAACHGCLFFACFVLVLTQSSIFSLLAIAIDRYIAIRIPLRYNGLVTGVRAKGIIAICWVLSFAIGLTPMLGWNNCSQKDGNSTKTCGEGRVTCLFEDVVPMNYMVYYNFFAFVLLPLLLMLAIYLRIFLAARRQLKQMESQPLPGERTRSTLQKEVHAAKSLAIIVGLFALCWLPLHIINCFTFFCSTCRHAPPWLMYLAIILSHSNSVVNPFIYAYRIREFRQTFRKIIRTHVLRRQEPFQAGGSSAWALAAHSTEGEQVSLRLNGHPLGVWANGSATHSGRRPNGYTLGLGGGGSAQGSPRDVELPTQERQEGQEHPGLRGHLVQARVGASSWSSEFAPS

With `CN(C)Nc1nc(Cl)nc2c1ncn2[C@@H]1O[C@H](CO)[C@@H](O)[C@H]1O` [Example 3, 2-Chloro-N-(N,N-dimethylamino)adenosine], on A2 receptor, the Ki is 1660 nM. For the same compound, on adenosine A1 receptor, the “Ratio A2/A1” value is on record as 92 and the Ki turned out to be 18 nM.

On to `OC[C@H]1O[C@@H](n2cnc3c(NOC4CCCC4)nc(Cl)nc32)[C@H](O)[C@@H]1O` [Example 7, 2-Chloro-N-cyclopentyloxyadenosine], for which the values for the Ki at A2 receptor and on adenosine A1 receptor were 2880 nM and 6.7 nM, respectively. Further, the “Ratio A2/A1” value on adenosine A1 receptor worked out at 429.

For the compound `CONc1nc(Cl)nc2c1ncn2[C@@H]1O[C@H](CO)[C@@H](O)[C@H]1O` [Example 8, 2-Chloro-N-methoxyadenosine], the Ki was found to be 1150 nM at A2 receptor and 21 nM at adenosine A1 receptor. Besides, the “Ratio A2/A1” value at adenosine A1 receptor is 55.

The values above are taken from US5430027A, “2-chloro-N^6 -substituted adenosines, their pharmaceutical compositions, and activity in treating ischemias” (Novo Nordisk A/S, priority 1992, dated 1995).
